# Values quoted from earlier work, collected in patent US11666537B2, “Solid oral dosage form of irinotecan for the treatment of cancer” (Oncoral Pharma ApS, priority 2014, dated 2023).
# Test system: tumor cells
# Details: human and rodent tumor cell lines
smiles,measurement,value
CCc1c2c(nc3ccc(O)cc13)-c1cc3c(c(=O)n1C2)COC(=O)[C@]3(O)CC [SN-38],times more cytotoxic than irinotecan,100-1000 times
